Measured values published in paper PMC5573760 (Cancer Chemotherapy and Pharmacology, 2017).
Several values for one entry are separate records, joined by “and”; a condition that tells them apart may be missing. Equal entries are not always repeated. Entries after “also recorded” stand apart in the source; their conditions may differ.

Experiments:
[1] = assay type: in vivo, human
Experimental: All subjects gave written informed consent; the study was conducted at PRA Health Sciences (Zuidlaren, The Netherlands) in accordance with the Declaration of Helsinki and was approved by an accredited institutional ethics committee (Medisch Ethische Toetsings Commissie, Assen, The Netherlands).
Subjects remained fasting until 2-h after the end of the infusion. Volunteers stayed in-house until 14 days after the application and subsequently urine and feces were collected for 24-h on Day 16, 20, 27 and 34 if necessary, cf. below.
Urine was collected pre-dose, at 0–12-h and 12–24 h after the start of the infusion and thereafter over 24-h intervals on Day 2 to Day 14 as well as on Day 16, 20, 27 and 34 (±1 day). Cumulative 24-h fecal samples were collected from Day 1 (day of infusion) to Day 14 and as well as on Day 16, 20, 27 and 34 (±1 day). […] The excreted radioactivity between ambulant visits during the prolongation phase of the clinical study was calculated using interpolation to get a more realistic total excretion value of all subjects (see "Pharmacokinetic analysis").
(§1) After pooling and homogenization of urine and feces samples per time interval, aliquots were stored at −20 °C for total radioactivity determination and at −70°C for metabolic profiling (including blood/plasma samples). For determination of total radioactivity, samples were analyzed with a Perkin Elmer Tri-Carb™ 3100 TR liquid scintillation analyzer (Perkin Elmer, Waltham, MA, USA) with quenching correction. For metabolite profiling, plasma samples were treated with a mixture of acetonitrile (ACN) +0.2% acetic acid, after shaking and centrifugation, the supernatant was concentrated. Urine and feces samples were treated with solid-phase extraction (Waters HLB 30 mg, 1 mL, Waters, Milford, MA, USA) and liquid–liquid extraction (ACN + 0.2% trifluoroacetic acid/water, 80:20 volume/volume), respectively. Subsequently samples from plasma, urine and feces were analyzed by HPLC-LSC on Synergi Polar 4 µm 150 × 2 mm (Phenomenex, Aschaffenburg, Germany) with off-line radioactivity detection by Microbeta^2™ Plus liquid scintillation counter with Ultima Flo™ AP scintillation fluid (Packard Instrument BV, Groningen, The Netherlands).
For blood/plasma ratio determination, total radioactivity in urine and feces well as data from HPLC analysis data from radioactivity measurement by liquid scintillation counting (LSC) were considered. The amount of radioactivity recovered in the excreta (A E) was related to the administered radioactive dose to establish the radioactive balance. Arithmetic means and coefficients of variation (CV) were calculated for these percentages. […] Cumulative excretion was calculated as sum of the collection intervals. The elimination of the total radioactivity in urine and feces for time-points beyond day 14 was performed by log-linear extrapolation between analyzed time-points. Amounts of radioactivity excreted in urine and feces between two ambulant visits were calculated per interpolated day by linear interpolation of log-transformed excretion data separately per matrix (lnA E(interpolated day) = Δdays × [lnA E(Visit i + 1) − lnA E(Visit i)]/[day (Visit i + 1) − day (Visit i)] + lnA E(Visit i), with A E given as amount of radioactivity excreted in matrix per day and Δdays being the difference between the calculated day and the last available visit with A E > 0). In case no feces sample was provided on an ambulant visit, this visit was neglected for interpolation.

[2] = Mass balance: excretion of radioactivity, copanlisib and metabolites in urine and feces; assay type: in vivo, human; conditions: for Amount excreted in feces as this component, arithmetic mean (range): HPLC with off-line radioactivity detection
Experimental: as §1
Metabolite patterns in plasma, urine and feces were studied by the HPLC method with off-line radioactivity detection described above.
A similar approach has been described earlier.

[3] = Safety and tolerability assessment in healthy male volunteers; assay type: in vivo, human
Description: Physical examination, blood pressure, pulse rate, body temperature and body weight, laboratory parameters and 12-lead electrocardiogram (ECG), as well as adverse events using the common terminology criteria for adverse events (CTCAE) Version 4.03, were monitored throughout the study for safety assessment.

plasma protein = conditions: reversible; cited from earlier work
[4] = tested on: breast Cancer Resistance Protein (BCRP); set-up: method as in Bayer AG, data on file; conditions: in vitro; ref Bayer AG, data on file; cited from earlier work
cytochrome P450 3A4 = tested on: cytochrome P450 3A4; set-up: method as in Bayer AG, data on file; conditions: in vitro, humans; ref Bayer AG, data on file; cited from earlier work
[5] = cited from earlier work
PI3K-α = conditions: cited from earlier work
PI3K-δ = conditions: cited from earlier work
[6] = tested on: primary malignant B cell lines; conditions: cited from earlier work
[7] = whole blood, range of 6 subjects
[8] = all 6 subjects after individual study release (Day 20–Day 34)
[9] = study release at Day 20 (N = 6)
[10] = study release at Day 27 (N = 5)
[11] = study release at Day 34 (N = 3)

In the case of `COc1c(OCCCN2CCOCC2)ccc2c1N=C(NC(=O)c1cnc(N)nc1)N1CCN=C21` [Copanlisib, copanlisib], the “Total radioactivity AUC (0–t last) in blood, geometric mean (% CV)” value ([1]; in vivo) is reported as 558 (28.8%) ng-Eq·h/mL, the “Total radioactivity AUC (0–t last) in blood, range” value ([1]; in vivo) is reported as 347–756 ng-Eq·h/mL and the “Total radioactivity AUC (0–t last) in plasma, geometric mean (% CV)” value ([1]; in vivo) is reported as 324 (54.1%) ng-Eq·h/mL. The “Total radioactivity AUC (0–t last) in plasma, range” value ([1]; in vivo) was 150–601 ng-Eq·h/mL, the “Total radioactivity t last in plasma, median” value ([1]; plasma) was 60 h and the “Total radioactivity t max in plasma, median” value ([1]; plasma) was 1 h. For the same molecule, the “Recovery of radioactivity extractable from plasma” value ([1]; plasma extraction, no indication of covalent adduct formation) was greater than 90%, the “Total radioactivity C max in plasma, geometric mean (% CV)” value ([1]; plasma, 12 mg copanlisib (2.76 MBq 14C) 1-h infusion) was 45.6 (26.0%) ng-Eq/mL and the “Total radioactivity C max in plasma, range” value ([1]; plasma, range of 6 subjects) was 32.1–57.6 ng-Eq/mL. The “Total radioactivity t last in plasma, range” value ([1]; plasma, range of 6 subjects) was 24 to 96 h, the “Total radioactivity t max in plasma, range” value ([1]; plasma, range of 6 subjects) was 0.5 to 1 h and the “Total radioactivity C max in blood, geometric mean (% CV)” value ([1]; whole blood) was 83.5 (26.3%) ng-Eq/mL. The “Total radioactivity t last in blood, median” value ([1]; whole blood) was 72 h, the “Total radioactivity t max in blood, median” value ([1]; whole blood) was 1 h and the “Total radioactivity C max in blood, range” value [1, 7] was 59.2–114 ng-Eq/mL. For the same molecule, the “Total radioactivity t last in blood, range” value [1, 7] was 36 to 72 h, the “Total radioactivity t max in blood, range” value [1, 7] was 0.5 to 1 h and the “Total radioactivity excreted in feces, arithmetic mean” value [2, 8] was 64.2 (56.7–68.1) % of dose. The “Total radioactivity excreted in feces, range” value [2, 8] was 56.7–68.1%, the “Total radioactivity excreted in urine, arithmetic mean” value [2, 8] was 21.7 (17.0–27.4) % of dose and the “Total radioactivity excreted in urine, range” value [2, 8] was 17.0–27.4%. The “Total radioactivity recovery in urine and feces, mean” value [2, 8] was 86% and 85.9 ± 3.4% and about 86%, the “Total radioactivity recovery in urine and feces, range” value [2, 8] was 81.7–91.0% and the “Amount excreted in feces as this component, arithmetic mean (range)” value ([2]; 6 subjects) was 30.1 (16.8–37.9) % of dose. The “Amount excreted in feces as this component, arithmetic mean (range)” value ([2]; 6 subjects, listed as copanlisib) was 30 % of dose, the “Dose cleared via metabolism” value ([2]; in vivo) was “about 41%” and the “Renal clearance (A e,ur/AUC) as share of total body clearance” value ([2]; in vivo) was “about 15%”. The “Share of observed renal clearance accounted for by passive renal filtration” value ([2]; in vivo) was “about one to two-thirds”, the “Excreted radioactivity in feces, mean” value [2, 9] was 61.0 ± 4.1% and the “Excreted radioactivity in feces, range” value [2, 9] was 54.8–66.7%. For the same molecule, the “Excreted radioactivity in urine, mean” value [2, 9] was 20.0 ± 3.5%, the “Excreted radioactivity in urine, range” value [2, 9] was 16.3–26.5% and the “Excreted total radioactivity in urine and feces, mean” value (shortened to “Excreted total radioactivity … mean”) [2, 9] was 81.0 ± 2.1%. For the same molecule, the “Excreted total radioactivity in urine and feces, range” value (“Excreted total radioactivity … range” for short) [2, 9] was 77.8–83.0%, the “Excreted radioactivity in feces, mean” value [2, 10] was 63.4 ± 4.5% and the “Excreted radioactivity in feces, range” value [2, 10] was 56.7–67.4%. The “Excreted radioactivity in urine, mean” value [2, 10] was 21.5 ± 3.9%, the “Excreted radioactivity in urine, range” value [2, 10] was 17.0–27.4% and the “Excreted total radioactivity … mean” value [2, 10] was 84.9 ± 2.3%. For the same molecule, the “Excreted total radioactivity … range” value [2, 10] was 82.3–88.5%, the “Excreted radioactivity in feces, mean” value [2, 11] was 66.1 ± 3.2% and the “Excreted radioactivity in feces, range” value [2, 11] was 62.4–68.1%. The “Excreted radioactivity in urine, mean” value [2, 11] was 22.2 ± 1.4%, the “Excreted radioactivity in urine, range” value [2, 11] was 20.6–23.1% and the “Excreted total radioactivity … mean” value [2, 11] was 88.3 ± 2.9%. The “Excreted total radioactivity … range” value [2, 11] was 85.2–91.0%, the “Radioactivity excreted that could be assigned to known structures” value ([2]; urine and feces) was “Over 98%” and the “Amount of dose recovered as this component in urine and feces combined” value ([2]; urine plus feces, 6 subjects) was 45.1 % of dose. The “Amount of dose recovered as this component in urine and feces combined, range” value ([2]; urine plus feces, range of 6 subjects) was 33.3–53.8%, the “Adverse events related to copanlisib” value ([3]; 12 mg, 6 healthy subjects) was “Three mild-to-moderate gastrointestinal adverse events” and the “Subjects with TEAEs assessed as related to the study drug” value ([3]; abdominal pain, diarrhea and nausea) was 2. The “Total number of gastrointestinal TEAEs” value ([3]; abdominal pain, nausea, flatulence, frequent bowel movements, diarrhea) was 5, the Neutrophils and leukocytes ([3]; all 6 healthy volunteers, all above 2/3 of the lower limit for normal values) was “transient decrease” and the “Other laboratory values, ECG or vital signs” value ([3]; human, in vivo) was “No clinically relevant changes”. For the same molecule, the Tolerability ([3]; single i.v. dose of 12 mg copanlisib, 6 healthy subjects) was “well tolerated”, the “Deaths or serious adverse events” value ([3]; single i.v. dose of 12 mg, 6 healthy subjects) was “No death or SAEs; also recorded: without any serious adverse event” and the “Volunteers with at least one treatment emergent adverse event (TEAE)” value ([3]; single i.v. dose of 12 mg, 6 volunteers) was “Three out of the 6”. The “free fraction (fraction unbound in plasma), plasma protein binding” value (plasma protein) was 15.8%, the “Substrate of efflux transporter BCRP” value [4] was “substrate” and the “Involvement of cytochrome P450 3A4 in the primary biotransformation step” value (cytochrome P450 3A4) was “predominant involvement”. For the same molecule, the “mean systemic plasma clearance” value ([5]; %CV 51.2, dose escalation study) was 18.9 L/h, the “Accumulation and time dependency after once weekly dosing” value ([5]; PK on Cycle 1 Days 1 and 15 and Cycle 3 Day 15, dose escalation study) was “No accumulation and no time dependency” and the “Half-life, range (known PK of copanlisib)” value [5] was 16.9 to 72.7 h. For the same molecule, the “Dose dependence of C max and AUC (0–25)” value ([5]; dose range 0.1–1.2 mg/kg (5–93 mg total dose), dose escalation study) was “dose proportional increases”, the “terminal phase half-life (t 1/2)” value ([5]; human, in vivo, 0.8 mg/kg) was 39.1 h and the volume of distribution ([5]; human, in vivo, 0.8 mg/kg) was 871 L. For the same molecule, the PI3K-α inhibitory activity (PI3K-α) was “predominant PI3K-α and PI3K-δ inhibitory activity”, the PI3K-δ inhibitory activity (PI3K-δ) was “predominant PI3K-α and PI3K-δ inhibitory activity” and the Tumor cell death [6] was “induce tumor cell death including apoptosis”.
